# Earlier results as cited in the CATMoS acute toxicity set (Mansouri et al. 2021).
# “And” between values parts separate entries of the source, which are not always exact repeats. Equal values may be shown once.
# Experiment: rat acute oral toxicity
# Details: in vivo
# Text: […]The data set underlying the modeling effort for this project was initially compiled by NICEATM and U.S. EPA’s CCTE. Briefly, LD50 data were collected from rat acute oral systemic toxicity tests, including limit tests, ranges/confidence intervals, and discrete LD50 values. The full data set included 21,200 LD50 entries for 15,688 substances. […] Data were reviewed to ensure that LD50 values with obvious errors in the extracted data such as unit conversion errors (e.g., comma and decimal separator misplacements) were either fixed or removed. After this review, 16,209 LD50 values remained. Many of the chemicals represented had multiple LD50 entries, requiring that a single representative value per Chemical Abstracts Service Registry Number (CASRN) identifier be defined to facilitate modeling efforts. Based on ATWG feedback and to define the representative LD50 as a protective value while accounting for the distribution across multiple LD50s, the median of the lowest quartile was computed using only discrete LD50 values (omitting limit test data and range and confidence interval data). A detailed summary of the data compilation is available online on the NICEATM webpage dedicated to the collaborative modeling project (NTP 2020).
# […][…] For categorical designations, limit test and range/confidence interval LD50 data were integrated wherever possible. As such, the number of chemicals with end point values/calls varies across the modeling end points (Table 3) based on whether chemicals had representative LD50 values and/or other data. If a chemical had both, the representative value was used to determine categorical calls rather than limit test data. Some data were useable only for certain end points and categories depending on the thresholds. For example, ranges that spanned multiple hazard categories were considered only for the binary (very toxic/nontoxic) end points and omitted from rendering a determination for hazard category assignment.
# […]The final data set comprising 11,992 chemicals was split into training and evaluation sets […], respectively. This process was performed semirandomly by ordering chemicals based on the five end points (categorical and continuous LD50 values) and partitioning every fourth record into the evaluation set accordingly. This approach was taken to ensure an equivalent distribution of the LD50 values and the different hazard categories between the training and the evaluation sets without supervised sampling of the chemicals based on structures (Figure 1A). The sources of the chemical structures were also kept equivalent between the two sets, with chemical structures obtained from DSSTox, being the highest quality, representing over 75% of each set (Figure 1B).
row,SMILES,LD50
1,O=C(O)CNCP(=O)(O)O,4870 mg/kg and 10500 mg/kg
2,C=CCN(CC=C)CC=C,1030 mg/kg
3,OCC(Cl)C(Cl)CO (stereo unspecified),2830 mg/kg
4,CCOP(=O)(OCC)SC(C)C,179 mg/kg
5,COP(=S)(OC)SCCSC,75 mg/kg
6,CC=Cc1ccc(OP(=S)(OC)OC)c(OC)c1,250 mg/kg
7,OCCOCCN1CCN(C(c2ccccc2)c2ccccc2)CC1,840 mg/kg
8,CCCCCCCCCC(=O)OC1(c2ccc(Cl)cc2)CCN(CCCC(=O)c2ccc(F)cc2)CC1,1720 mg/kg
9,CC(C)C(=O)Nc1ccc([N+](=O)[O-])c(C(F)(F)F)c1,787 mg/kg
10,CN1C(C(=O)Nc2ccccn2)C(=O)c2sc(Cl)cc2S1(=O)=O (stereo unspecified),5.73 mg/kg
11,NC(=S)C1CC=CCC1 (stereo unspecified),50 mg/kg
12,CCCCc1ccc(O)c(C(=O)Nc2cccc(C(F)(F)F)c2)c1,2500 mg/kg
13,NC(=O)c1cc2cc(CN3CCCCC3)ccc2o1,250 mg/kg
14,CCCCCCCCOP(OCC(CC)CCCC)Oc1ccccc1 (stereo unspecified),7000 mg/kg
15,O=C(O)CCCOc1ccc(Cl)cc1Cl,700 mg/kg
16,CNC(=O)Oc1ccc(C)c(C)c1C,318 mg/kg
17,CCOP(=S)(OCC)Oc1cnn(C)c(=O)c1OC,2.5 mg/kg
18,CNC(=O)ON=C1SCC(=O)NC1C (stereo unspecified),5.66 mg/kg
19,CC(=O)O[C@]1(C(C)=O)CC[C@H]2[C@@H]3C=C(Cl)C4=CC(=O)CC[C@]4(C)[C@H]3CC[C@@]21C,6400 mg/kg
20,O=P1(N(CCCl)CCCl)NCCCO1 (stereo unspecified),94 mg/kg
21,Cc1c(-c2ccccc2)oc2c(C(=O)OCCN3CCCCC3)cccc2c1=O,1440 mg/kg and 1040 mg/kg
22,O=C1c2ccccc2C(=O)C1c1ccccc1,163 mg/kg
23,CCc1c(C)[nH]c2c1C(=O)C(CN1CCC3(CC1)OCCO3)CC2 (stereo unspecified),240 mg/kg
24,CCN(CC)C(=O)c1nnn(-c2ccc(N)cc2)c1C,494 mg/kg
25,CC(C)C(=O)OC(=O)C(C)C,7700 mg/kg
26,CC(=O)CCCCn1c(=O)c2c(ncn2C)n(C)c1=O,1170 mg/kg

row,SMILES,LD50
1,CC(C)C(=O)OC1CCC(N2CCCCC2)CC1 (stereo unspecified),3150 mg/kg
2,Cc1cccc(C)c1NC(=O)C1(N(C)C)CCN(C2CCCCC2O)CC1 (stereo unspecified),4.83 mg/kg
3,N=C(N)SCc1ccc([N+](=O)[O-])cc1,300 mg/kg
4,C[C@H](CCC(=O)O)[C@H]1CC[C@H]2[C@@H]3CC[C@@H]4C[C@H](O)CC[C@]4(C)[C@H]3C[C@H](O)[C@]12C,1370 mg/kg and 1000 mg/kg
5,CC(C)(O)Cc1ccccc1,1280 mg/kg
6,CSc1ncnc2c1ncn2C1OC(CO)C(O)C1O (stereo unspecified),214 mg/kg
7,Nc1cc(Cl)c(N)c(Cl)c1,700 mg/kg
8,CCCCN(CC)N=O,380 mg/kg
9,Cc1cc(C2CCCCC2)n(O)c(=O)c1,2350 mg/kg
10,CNC=O,4000 mg/kg
11,CN(C)c1ccccc1CS(=O)c1nc2ccccc2[nH]1 (stereo unspecified),1300 mg/kg
12,Cc1ccc(OC(=O)c2ccccc2O)cc1,1300 mg/kg
13,Cc1c(Nc2ccccc2C(=O)O)ccc(O)c1Cl,1850 mg/kg
14,c1ccc2[nH]c(-c3cscn3)nc2c1,3600 mg/kg and 3100 mg/kg
15,CC(C)(C)NCCO,1620 mg/kg
16,CC(Cl)(Cl)C(=O)O,3860 mg/kg
17,CCCCCCN,670 mg/kg
18,Nc1ccc(O)c(N)c1,240 mg/kg
19,COP(=O)(OC)OC(c1ccc(Cl)cc1)P(=O)(OC)OC (stereo unspecified),3200 mg/kg
20,CC[P+](c1ccccc1)(c1ccccc1)c1ccccc1,200 mg/kg and 79 mg/kg
21,Fc1ccc(Br)c(F)c1,300 mg/kg
22,CC(=O)Nc1c(I)c(C(=O)O)c(I)c(N(C)C(C)=O)c1I,38100 mg/kg
23,N=C(N)NCC1CCC(C(=O)Oc2ccccc2C(=O)OCc2ccccc2)CC1 (stereo unspecified),8010 mg/kg
24,CCCCOC(OCCCC)C(OCCCC)OCCCC,8900 mg/kg
25,CCCCCCCCCCNCCCCCCCC,2400 mg/kg
